Measurements taken from US8557816B2, “Aurora kinase modulators and method of use” (Amgen Inc., priority 2007, dated 2013).

Experiments:
AuroraA-TPX2 = molecular target: T1, AuroraA-TPX2 (Homo sapiens, UniProt O14965); experiment: AuroraA-TPX2 Homogeneous Time Resolved Fluorescent (HTRF) kinase assay; assay type: biochemical; conditions: average; read-out: AurA_IC50_IP (uM Avg)
T1 construct: 20 μL of AuroraA-TPX2 KD GST for a final volume of about 41 μL; GST
T1 sequence (O14965 133-383 limits assumed): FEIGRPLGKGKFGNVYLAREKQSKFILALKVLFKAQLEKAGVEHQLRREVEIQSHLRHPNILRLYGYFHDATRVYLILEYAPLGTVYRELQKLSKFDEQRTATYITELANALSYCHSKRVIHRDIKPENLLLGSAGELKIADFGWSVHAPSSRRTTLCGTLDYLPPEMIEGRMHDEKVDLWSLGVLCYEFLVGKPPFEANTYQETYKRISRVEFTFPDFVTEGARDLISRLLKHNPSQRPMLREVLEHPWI
T1 sequence (Q9ULW0 1-43 partner limits assumed): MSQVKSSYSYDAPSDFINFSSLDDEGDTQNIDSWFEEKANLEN
Summary of the method: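 HTRF read-out (Eu 615 nm to APC 655 nm) of phosphorylated biotin-PLK, detected with 0.02 nM europium anti-phosphoPLK antibody and 0.0005 mg/mL SA-APC after overnight equilibration.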

AuroraB = molecular target: T2, AuroraB (Homo sapiens, UniProt Q96GD4); experiment: AuroraB Homogeneous Time Resolved Fluorescent (HTRF) kinase assay; assay type: biochemical; conditions: average; read-out: AurB_IC50_IP (uM Avg)
T2 construct: 20 μL of AuroraB FL H is for a final volume of 41 μL; His
Summary of the method: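 Read-out is time-resolved FRET between europium anti-phospho-H3 antibody and streptavidin-APC, added in EDTA buffer to stop the reaction and equilibrated about 60 min (ex 320, em 615 and 655 nm). Preceding reaction: ~90 min, full-length enzyme, ATP, 0.1 μM biotin-Histone H3 substrate, Mg/Mn HEPES buffer pH 7.5.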

T2 sequence (Q96GD4 whole entry): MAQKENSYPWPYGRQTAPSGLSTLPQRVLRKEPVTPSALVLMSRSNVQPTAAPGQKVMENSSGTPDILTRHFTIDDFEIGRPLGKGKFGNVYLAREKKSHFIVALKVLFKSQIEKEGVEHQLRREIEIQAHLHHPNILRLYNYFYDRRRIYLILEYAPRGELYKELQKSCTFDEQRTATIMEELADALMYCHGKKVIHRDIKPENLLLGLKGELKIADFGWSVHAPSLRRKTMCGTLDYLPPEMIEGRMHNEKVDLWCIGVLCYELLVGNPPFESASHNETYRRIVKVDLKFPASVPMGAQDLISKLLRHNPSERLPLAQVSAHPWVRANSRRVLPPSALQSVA

| Compound | IC50 (AuroraA-TPX2) [µM] | IC50 (AuroraB) [µM] |
| --- | --- | --- |
| COc1ccc2nccc(Oc3ccc(Nc4nnc(-c5ccc6c(c5)OCO6)c5ccccc45)cc3)c2n1 [compound 551] | 0.096 | 0.017 |
| COc1ccc2nccc(Oc3ccc(Nc4nnc(-c5cc(C)cs5)c5ccccc45)cc3)c2n1 [compound 552] | 0.056 | 0.036 |
| Cc1ccc(-c2nnc(Nc3ccc(Sc4ccnc5cccnc45)cc3)c3ccccc23)cn1 [compound 553] | 0.042 | 0.005 |
| COc1ccc2nccc(Oc3ccc(Nc4nnc(-c5ccc(C)cn5)c5ccccc45)cc3)c2c1 [compound 554] | 0.172 | 0.011 |
| COc1cnc2c(Sc3ccc(Nc4nnc(N5CCCC(C)(C)C5)c5ccccc45)cc3)ccnc2c1 [compound 555] | 0.102 | 0.105 |
| COc1cnc2c(Sc3ccc(Nc4nnc(N5CC(C)CC(C)C5)c5ccccc45)cc3)ccnc2c1 (stereo not shown) [compound 556] | 0.116 | 0.159 |
| COc1cnc2c(Sc3ccc(Nc4nnc(N5CCC(F)CC5)c5ccccc45)cc3)ccnc2c1 [compound 557] | 0.161 | 0.059 |
| COc1cnc2c(Sc3ccc(Nc4nnc(C(C)C)c5ccccc45)cc3)ccnc2c1 [compound 558] | 0.378 | 0.041 |
| Cc1cc2nccc(Sc3ccc(Nc4nnc(-c5ccc(Cl)cc5)c5ccccc45)cc3)c2s1 [compound 559] | 0.168 | 0.098 |
| Cc1cc2nccc(Sc3ccc(Nc4nnc(-c5ccc(Cl)cn5)c5ccccc45)cc3)c2s1 [compound 560] | 0.416 | 0.081 |
| c1ccc(-c2nnc(Nc3ccc(Sc4ncnc5ccccc45)cc3)c3ccccc23)cc1 [compound 561] | > 25 | > 5 |
| Clc1ccc(-c2nnc(Nc3ccc(Oc4ncnc5ccccc45)cc3)c3ccccc23)cc1 [compound 562] | 0.107 | 0.006 |
| COc1cnc2c(Sc3ccc(Nc4nnc(N5CCN6CCC[C@H]6C5)c5ccccc45)cc3)ccnc2c1 [compound 563] | 0.023 | 0.009 |
| COc1ccc2ncnc(Oc3ccc(Nc4nnc(-c5ccc(Cl)cc5)c5ccccc45)cc3)c2c1 [compound 564] | > 25 | 0.129 |
| COc1ccc2ncnc(Oc3ccc(Nc4nnc(-c5cc(C)cs5)c5ccccc45)cc3)c2c1 [compound 565] | 0.686 | 0.108 |
| COc1cnc2c(Oc3ccc(Nc4nnc(-c5ccc(Cl)cc5)c5ccccc45)cc3OC)ccnc2c1 [compound 566] | 0.093 | 0.043 |
| COc1cnc2c(Oc3ccc(Nc4nnc(-c5cc(C)cs5)c5ccccc45)cc3OC)ccnc2c1 [compound 567] | 0.092 | 0.041 |

| Compound | IC50 (AuroraA-TPX2) [µM] | IC50 (AuroraB) [µM] |
| --- | --- | --- |
| Cc1csc(-c2nnc(Nc3ccc(Oc4ncnc5ccccc45)cc3)c3ccccc23)c1 [compound 568] | 0.233 | 0.011 |
| O=c1ccc2nccc(Oc3ccc(Nc4nnc(-c5ccc(Cl)cc5)c5ccccc45)cc3)c2[nH]1 [compound 569] | 0.128 | 0.013 |
| Clc1ccc(-c2nnc(Nc3ccc(Sc4ccnc5c4CCCN5)cc3)c3ccccc23)cc1 [compound 570] | 0.05 | 0.008 |
| FC(F)(F)Oc1ccc2nccc(Sc3ccc(Nc4nnc(-c5ccccc5)c5ccccc45)cc3)c2c1 [compound 571] | > 25 | > 25 |
| Cc1csc(-c2nnc(Nc3ccc(Sc4ccnc5ccc(OC(F)(F)F)cc45)cc3)c3ccccc23)c1 [compound 572] | > 25 | > 25 |
| COc1cc(OC)c2c(Oc3ccc(Nc4nnc(-c5cc(C)cs5)c5ccccc45)cc3)ncnc2c1 [compound 573] | 0.042 | 0.114 |
| FC(F)(F)Oc1ccc2nccc(Oc3ccc(Nc4nnc(-c5ccc(Cl)cc5)c5ccccc45)cc3)c2c1 [compound 574] | 0.752 | 0.365 |
| Cc1csc(-c2nnc(Nc3ccc(Oc4ccnc5ccc(OC(F)(F)F)cc45)cc3)c3ccccc23)c1 [compound 575] | 0.226 | 0.81 |
| COc1cnc2c(Sc3ccc(Nc4nnc(N5CCn6ccnc6C5)c5ccccc45)cc3)ccnc2c1 [compound 576] | 0.077 | 0.026 |
| c1ccc(-c2nnc(Nc3ccc(Sc4ccnc5c4CCCN5)cc3)c3ccccc23)cc1 [compound 577] | 0.428 | 0.021 |
| COc1cnc2c(Sc3ccc(Nc4nnc(N5CCc6sccc6C5)c5ccccc45)cc3)ccnc2c1 [compound 578] | 0.033 | 0.081 |
| COc1cnc2c(Sc3ccc(Nc4nnc(N5CCn6ncnc6C5)c5ccccc45)cc3)ccnc2c1 [compound 579] | 0.228 | 0.032 |
| COc1cnc2c(Sc3ccc(Nc4nnc(N5CCN6CCCC[C@@H]6C5)c5ccccc45)cc3)ccnc2c1 [compound 580] | 0.023 | 0.005 |
| COc1cc(OC)c2c(Sc3ccc(Nc4nnc(-c5ccccc5)c5ccccc45)cc3)ncnc2c1 [compound 581] | 1.13 | 0.236 |
| COc1cnc2c(Sc3ccc(Nc4nnc(N5CCN6CCC[C@@H]6C5)c5ccccc45)cc3)ccnc2c1 [compound 582] | 0.029 | 0.006 |
| COc1cnc2c(Sc3ccc(Nc4nnc(-c5ccc(OC)nc5)c5ccccc45)cc3)ccnc2c1 [compound 583] | 0.028 | 0.008 |

The remaining lines, values ahead:

| IC50 (AuroraA-TPX2) [µM] | IC50 (AuroraB) [µM] | Compound |
| --- | --- | --- |
| 0.009 | 0.005 | COc1cnc2c(Sc3ccc(Nc4nnc(N5CCN6CCCC[C@@H]6C5)c5ccccc45)cc3)ccnc2c1 [compound 584] |
| 0.036 | 0.006 | COc1cnc2c(Sc3ccc(Nc4nnc(N5CCN6CCCC[C@H]6C5)c5ccccc45)cc3)ccnc2c1 [compound 585] |
| 0.124 | 0.042 | COc1cnc2c(Oc3ccc(Nc4nnc(N5CC[C@H]6CCCC[C@@H]6C5)c5ccccc45)cc3)ccnc2c1 [compound 586] |
| 0.217 | 0.033 | COc1cnc2c(Oc3ccc(Nc4nnc(N5CC[C@@H]6CCCC[C@H]6C5)c5ccccc45)cc3)ccnc2c1 [compound 587] |
| 0.051 | 0.017 | COc1cnc2c(Sc3ccc(Nc4nnc(-c5ccc(C)nc5)c5ccccc45)cc3)ccnc2c1 [compound 588] |
| 0.019 | 0.008 | Cc1csc(-c2nnc(Nc3ccc(Sc4ccnc5ccc(=O)[nH]c45)cc3)c3ccccc23)c1 [compound 589] |
| 0.027 | 0.02 | COc1cc(OC)c2c(Oc3ccc(Nc4nnc(-c5ccc(Cl)cc5)c5ccccc45)cc3)ncnc2c1 [compound 590] |
| 0.25 | 0.005 | Clc1ccc(-c2nnc(Nc3ccc(Oc4ncnc5ccsc45)cc3)c3ccccc23)cc1 [compound 591] |
| 0.338 | 0.022 | N#Cc1ccc2nccc(Oc3ccc(Nc4nnc(-c5ccccc5)c5ccccc45)cc3)c2c1 [compound 592] |
| 0.526 | 0.082 | COCc1cc(-c2ccccc2)nnc1Nc1ccc(Oc2ccnc3cc(OC)cnc23)cc1 [compound 593] |
| 0.094 | 0.051 | CCc1cc(-c2ccc3c(c2)OCO3)nnc1Nc1ccc(Oc2ccnc3cc(OC)cnc23)cc1 [compound 594] |
| 0.102 | 0.023 | CCc1cc(-c2ccc(C)cc2)nnc1Nc1ccc(Nc2ccnc3cc(OC)cnc23)cc1 [compound 595] |
| 0.16 | 0.058 | CCc1cc(-c2ccc(C)cc2)nnc1Nc1ccc(Nc2ccnc3cc(C#N)ccc23)cc1 [compound 596] |
| 0.246 | 0.681 | COc1cc2nccc(Sc3ccc(Nc4nnc(-c5ccccc5)c5ccccc45)cc3)c2nc1OC [compound 597] |
| 0.135 | 0.595 | COc1cc2nccc(Sc3ccc(Nc4nnc(-c5ccc(Cl)cc5)c5ccccc45)cc3)c2nc1OC [compound 598] |
| 0.794 | 0.256 | Brc1cnc2c(Oc3ccc(Nc4nnc(-c5ccccc5)c5ccccc45)cc3)ncnc2c1 [compound 599] |
| 0.014 | 0.01 | COc1cnc2c(Sc3ccc(Nc4nnc(N5CCN6C[C@H](F)C[C@H]6C5)c5ccccc45)cc3)ccnc2c1 [compound 600] |
| 0.021 | 0.012 | COc1cnc2c(Sc3ccc(Nc4nnc(N5CCN6CC(F)(F)C[C@H]6C5)c5ccccc45)cc3)ccnc2c1 [compound 601] |
| 0.027 | 0.013 | COc1cnc2c(Oc3ccc(Nc4nnc(N5CCN6CCCCC[C@@H]6C5)c5ccccc45)cc3)ccnc2c1 [compound 604] |
| 0.803 | 0.083 | COc1cnc2c(Sc3ccc(Nc4nnc(N5CCN(S(C)(=O)=O)CC5)c5ccccc45)cc3)ccnc2c1 [compound 605] |
| > 25 | 0.035 | COc1cc(OC)c2c(Oc3ccc(Nc4nnc(-c5ccccc5)c5ccccc45)cn3)ncnc2c1 [compound 606] |
| 2.82 | 0.324 | COc1cnc2c(Oc3ccc(Nc4nnc(N5CCN(S(C)(=O)=O)CC5)c5ccccc45)cc3)ccnc2c1 [compound 607] |
| 0.352 | 0.022 | COc1cnc2c(Sc3ccc(Nc4nnc(N5CCN(C(C)=O)CC5)c5ccccc45)cc3)ccnc2c1 [compound 608] |
